The text below walks through data of patent publication US7612107B2, “Treatment and inhibition of disease conditions using flexible heteroarotinoids” (The Board of Regents of the University of Oklahoma, priority 2005, dated 2009).

The test system of data set [1] is organotypic cultures of human ovarian cancer cell lines and primary cultures. The experiment in a line: Ovarian carcinoma organotypic cultures (TUNEL, histology). Particulars: 1 μM retinoid in media. It counts as cell-based. The method, then: FIG. 17. Retinoid effects on ovarian carcinoma organotypic cultures. Organotypic cultures of OVCAR-3 (A, B, E, F, I and J), Caov-3 (C and G), SK-OV-3 (D and H), and O2 (K and L) were grown in the absence (−, top row and K) or presence (+, middle row and I, J and L) of retinoid HetA4 at a concentration of 1 μM in the media. All sections were stained with H&E except for […], which was stained with PAS to detect glycoproteins and glandular differentiation, and J, which was stained with the TUNEL assay to detect apoptosis. All magnifications are 40×.
To test our hypotheses, we evaluated the effects of clinically achievable concentrations of 4-HPR and Flex-Hets on growth, differentiation and apoptosis in ovarian tissue. A series of compounds with a variety of receptor activation profiles were evaluated. In order to evaluate therapeutic effects, we developed an organotypic culture model of ovarian tumors by growing established cell lines and primary cultures inside collagen gels. Monolayer cultures of cells are not accurate representations of in vivo tissue because they lack the types of interactions that cells have with other cells and with the extracellular matrix in vivo. These interactions are known to influence gene expression and thus the constitution and behavior of cells. In our organotypic model, the growth of tumor cells inside the collagen allows a representation of tumors that have invaded stromal tissue. In the presence of fibroblasts, established cell lines and primary cultures of ovarian cancer formed colonies inside the collagen, while normal or benign ovarian epithelial cells remained as single cells inside the collagen. Human ovarian cancer cell lines (OVCAR-3, Caov-3, SK-OV-3, A2780, UCI 101) and primary human cultures (borderline ovarian tumor (O1), serous papillary tumor (O2), benign ovarian cyst (O3)) were cultured inside and on top of a collagen gel seeded with 3T3 fibroblasts for one week. After further incubation in the presence or absence of 1 μM retinoid (media concentration) for 3, 7 or 14 days, cultures were fixed and sectioned for immunohistochemical analysis.
The TUNEL assay was used to evaluate apoptosis in fixed, paraffin embedded, cut sections of the treated and control cultures (FIG. 17). […] These two cellular outcomes appeared to be mutually exclusive.

Data set [2] deals with OVCAR-3 xenograft tumors. Put plainly: OVCAR-3 xenograft tumor growth model. Particulars: 10 mg/kg/day by gavage, 5 days per week, 4 weeks. It counts as in vivo, mouse. The method, then: Groups of 5 mice bearing OVCAR-3 xenografted tumors were gavaged daily with the indicated drugs in sesame oil (▪ closed square) or with sesame oil alone (∘ open circle). Tumor volumes were measured in 3 dimensions with calipers weekly. Each data point represents the average and standard error of the tumor volumes on the indicated treatment day relative to the tumor volume on day zero. Nu/nu mice were injected subcutaneously with one million OVCAR-3 cells and arbitrarily divided into five groups of six mice each. After three weeks of tumor growth, the animals were gavaged with sesame oil, 10 mg/kg/day 4-HPR, or the indicated Het five times per week for four weeks and the tumors were measured once per week. The tumor sizes were averaged and divided by the average size for each group on the day that treatment was initiated (day 0).
The OVCAR-3 cultures were maintained in RPMI media supplemented with 10% fetal bovine serum. All animal experimentation described in this manuscript was conducted in accord with accepted standards of humane animal care. Twenty-five female NU/NU CD-1 female mice (Charles Rivers Laboratories) were housed in a laminar flow room under sterile conditions at 83-85° F. The mice were quarantined for one week prior to the beginning of the study and were allowed access to autoclaved food (Purina 5001 mouse/rat sterilizable diet, St. Louis, Mo.) and water ad libitum. OVCAR-3 cells in log phase growth were harvested by trypsinization, resuspended in RPMI culture medium, and centrifuged at 3,000 rpm for 10 min. The pellets were resuspended in RPMI culture medium at a concentration of 7×10^6 cells/ml before implantation into mice. Animals were injected with 3.5×10^6 cells into the right scapular region with a 24-gauge needle/1 cc tuberculin syringe. Twenty-four hours after tumor implantation, animals were randomized into 5 groups of 5 animals each.
The Hets SHet50, SHetA2 and SHetA4 were synthesized and their receptor specificity determined as previously described (17,19). The 4-HPR compound was a gift from R.W. Johnson Pharmaceutical Research Institute, Raritan, N.J. All retinoids were dissolved in super refined sesame oil (Croda, Inc., Parsippany, N.J.) and stored at −80° C. Since the retinoids are light sensitive, all manipulations involving retinoids were performed under subdued lighting. […] Tumors were measured with calipers weekly, and tumor volumes were calculated using the formula: volume=length×width×height. Tumor growth was determined by the dividing the volume of the tumor at each weekly measurement by the volume on the first day of treatment. Animal weights and clinical signs of overall health status and cutaneous toxicities were recorded weekly.

The subject of data set [3] is Raldh2-/- embryos. The following applies: for No. of −/− rescued / No. of −/− unrescued: E10.25; for Teratogenesis: mouse, in vivo, po. The method, then:
Briefly, retinoids were dissolved in corn oil and administered orally to timed-pregnant Raldh2_/_mice at 12-h intervals on E7.25, E7.75, and E8.25. Dosages varied from 0.025 to 25 mg/kg. At E10.25, embryos were analyzed morphologically to determine whether Raldh2_/_embryos were rescued or whether wild-type embryos had suffered teratogenesis. Detection of embryonic RA was performed in situ in embryos carrying the RARE-lacZ RA-reporter gene by staining for beta-galactosidase activity for 10 h (45).
A mouse model that lacks retinaldehyde dehydrogenase (Raldh2) due to null mutations was used to test the ability of Flex-Hets to substitute for retinoic acid (RA) and induce birth defects. […] We examined the relative ability of all-trans-RA, 9-cis-RA, receptor-specific synthetic retinoids and retinoic acid receptor independent Flex-Hets to rescue the Raldh2_/_embryonic lethal phenotype.

Data set [4] concerns dorsal skin. The experiment in a line: Topical irritancy in Skh hairless mice. It counts as in vivo. The protocol: Female Skh hairless mice, 6-8 weeks old, were treated topically on the dorsal skin for 4 days over a 2-log concentration dose range with various compounds. Retinoic acid receptor-Hets were evaluated in A, while retinoic acid receptor-independent Flex-Hets were evaluated in B. Daily flaking and abrasion scores were combined to calculate a single cutaneous toxicity score for each mouse. Each treatment group consisted of 4 mice, and group averages were used to plot cutaneous toxicity against doses of the compounds.
Topical irritancy was evaluated according to published procedures (29). Briefly, female Skh hairless mice, 6-8 weeks old, were treated topically on the dorsal skin for 4 days over a 2-log concentration dose range with various compounds. Daily flaking and abrasion scores were combined to calculate a single cutaneous toxicity score for each mouse. Each treatment group consists of 4 mice, and group averages are used to plot cutaneous toxicity against dose of the retinoid compound.

Data set [5] relates to human polycystic kidney disease cells. The experiment in a line: 3-D model of polycystic kidney disease, cyst formation. It counts as cell-based. The following applies: 4 μM, 3 weeks. The protocol: FIG. 21. Effects of Flex-Hets on formation of cysts in cultured polycystic kidney disease cells. A primary culture of polycystic kidney cells were grown inside a mixture of collagen I and matrigel and treated with prostaglandin E2 to induce cyst formation. Parallel cultures were treated with 10 micromolar SHetA3 and SHetA4.
The 3-D model of the PKD was developed as described here. Single-cell suspensions of the PCKD cell lines was re-suspended in a 4° C. solution mixture containing rat tail collagen I (Collaborative Biomedical Products, Bedford, Mass.), matrigel (Becton Dickinson) and MEM. The suspension was poured into Falcon cell culture inserts with transparent membranes containing 0.4 μm pores (Becton Dickinson, Franklin Lakes, N.J.) and placed at 37° C. Treatment of cultures was initiated after 1 day of growth and replenished with medium once in every two days. Drugs (Flex-Hets at 4 μM Conc.) and hormones (PGE2 at 25 ng/ml) were administered into the medium surrounding the insert. Untreated control cultures were grown in the same conditions as that of the treated cultures. Drug treatment was carried out for 3 weeks before their effects on growth and inhibition were evaluated.

For data set [6] the following is noted: more potent than RA; cited from earlier work.
The mark [7] stands for this setting: topical, dorsal skin, 4 days, 2-log dose range.

Read-outs that look alike come from different tables or passages of the source.

Consider `CC1=C(/C=C/C(C)=C/C=C/C(C)=C/C(=O)Nc2ccc(O)cc2)C(C)(C)CCC1` [4-HPR, reference compound], for which, in data set [1], the “Induction of apoptosis (TUNEL) in organotypic cultures” value (“Induction of apoptosis (TUNEL)” below) is recorded as “Apoptosis was induced”. The “Growth of xenograft tumors versus sesame oil control” value in data set [2] is reported as “significantly inhibited the growth”.

`CC1=C(/C=C/C(C)=C\C=C\C(C)=C\C(=O)O)C(C)(C)CCC1` [9-cis-RA]: the “Induction of apoptosis (TUNEL)” value in data set [1] is listed as “Apoptosis was induced”. The “No. of −/− rescued” value in data set [3] (Dose 2.5 mg/kg oral) turned out to be 2; in data set [3] (Dose 10 mg/kg oral), 6. The “No. of −/− unrescued” value is listed as 8 in data set [3] (Dose 2.5 mg/kg oral) and 1 in data set [3] (Dose 10 mg/kg oral). In addition, the Teratogenesis in data set [3] (2.5 mg/kg) and in data set [3] (10 mg/kg) was 0 in each case.

For `CC1=C(/C=C/C(C)=C/C=C/C(C)=C/C(=O)O)C(C)(C)CCC1` [All-trans-RA], the “No. of −/− rescued” value in data set [3] (Dose 1.0 mg/kg oral) was 0; in data set [3] (Dose 2.5 mg/kg oral) it was 13. For the same compound, the “No. of −/− unrescued” value in data set [3] (Dose 1.0 mg/kg oral) is listed as 7; in data set [3] (Dose 2.5 mg/kg oral), 1. In addition, the Teratogenesis in data set [3] (1 mg/kg) and in data set [3] (2.5 mg/kg) was 0 throughout.

As for `CCOC(=O)c1ccc(OC(=O)c2ccc3c(c2)C(C)(C)CCN3C(C)C)cc1` [NHet17], in data set [4] (setting [7]), the “Topical irritancy (cutaneous toxicity score)” value (“Topical irritancy” for short) is given as “induced topical irritancy scores in a dose-responsive manner”.

Take `CC1(C)CCOc2ccc(C(=O)Oc3ccc(C=NNC(N)=S)cc3)cc21` [OHet72]: the “Topical irritancy” value in data set [4] (mouse, in vivo) is “did not induce topical irritancy”. The “Rescue of Raldh2−/− embryos (in words)” value in data set [3] (2.5 mg/kg) and in data set [3] (10 or 25 mg/kg) was “no rescue” throughout. Further, the “No. of −/− rescued” value in data set [3] (Dose 2.5 mg/kg oral), in data set [3] (Dose 10 mg/kg oral) and in data set [3] (Dose 25 mg/kg oral) was 0 throughout. Besides, the “No. of −/− unrescued” value in data set [3] (Dose 2.5 mg/kg oral) is 4; in data set [3] (Dose 10 mg/kg oral) it was 3; in data set [3] (Dose 25 mg/kg oral) it was 5. Further, the Teratogenesis in data set [3] (2.5 mg/kg), in data set [3] (10 mg/kg) and in data set [3] (25 mg/kg) was 0 each time.

In the case of `COC(=O)c1ccc(C(=O)Nc2ccc3c(c2)C(C)(C)CC(C)(C)S3)cc1` [SHet50, reference compound], the “Induction of apoptosis (TUNEL)” value in data set [1] is recorded as “Apoptosis was induced”. In data set [2], the “Growth of xenograft tumors versus sesame oil control” value was “significantly inhibited the growth”.

Turning to `CC(C=CC=C(C)c1ccc2c(c1)C(C)(C)CS2)=CC(=O)O` [SHet65], the “Topical irritancy” value in data set [4] (setting [7]) is given as “induced topical irritancy scores in a dose-responsive manner”.

In the case of `CC(Cc1ccc(C(=O)O)cc1)c1ccc2c(c1)C(C)(C)CS2` (stereo not drawn) [SHet100], the “Rescue of Raldh2−/− embryos (in words)” value in data set [3] (0.5 mg/kg) is “typical rescue phenotype”. Besides, the “No. of −/− rescued” value in data set [3] (Dose 0.025 mg/kg oral) is 0; in data set [3] (Dose 0.25 mg/kg oral) it was 2; in data set [3] (Dose 0.5 mg/kg oral), 6. In addition, the “No. of −/− unrescued” value stood at 2 in data set [3] (Dose 0.025 mg/kg oral), 0 in data set [3] (Dose 0.25 mg/kg oral) and 1 in data set [3] (Dose 0.5 mg/kg oral). Besides, the Teratogenesis is 0 in data set [3] (0.025 mg/kg), 0 in data set [3] (0.25 mg/kg), 0 in data set [3] (0.5 mg/kg) and 11 in data set [3] (2.5 mg/kg).

With `CCOC(=O)c1ccc(NC(=O)Nc2ccc3c(c2)C(C)(C)CC(C)(C)S3)cc1` [SHetA4], in data set [1], the “Induction of apoptosis (TUNEL)” value is “Apoptosis was induced”. Moreover, in data set [4] (mouse, in vivo), the “Topical irritancy” value is recorded as “did not induce topical irritancy”. In addition, the “Differentiated phenotype (tubular structures)” value in data set [5] is “induced the formation of several branched tubular structures”. Also, in data set [5] (PGE2 25 ng/ml), the Cyst formation entry was “completely eliminated cyst formation”. The “Growth of xenograft tumors versus sesame oil control” value in data set [2] was “significantly inhibited the growth”.

Consider `C/C(=C\c1ccc(C(=O)O)cc1)c1ccc2c(c1)C(C)(C)CCC2(C)C` [TTNPB], for which, in data set [6], the “Potency relative to RA” value was 10 fold.
